Measurements reported in ChEMBL document CHEMBL2074369, “Interactions of HIV protease inhibitors with a human organic cation transporter in a mammalian expression system” (Drug Metab Dispos, 2000).

Assays:
[1] = target: T1, Solute carrier family 22 member 1 (Rattus norvegicus, UniProt Q63089); assay: TP_TRANSPORTER: uptake in OCT1-expressing HeLa cells; type: functional, cell-based; details: human
T1 sequence (Q63089 whole entry): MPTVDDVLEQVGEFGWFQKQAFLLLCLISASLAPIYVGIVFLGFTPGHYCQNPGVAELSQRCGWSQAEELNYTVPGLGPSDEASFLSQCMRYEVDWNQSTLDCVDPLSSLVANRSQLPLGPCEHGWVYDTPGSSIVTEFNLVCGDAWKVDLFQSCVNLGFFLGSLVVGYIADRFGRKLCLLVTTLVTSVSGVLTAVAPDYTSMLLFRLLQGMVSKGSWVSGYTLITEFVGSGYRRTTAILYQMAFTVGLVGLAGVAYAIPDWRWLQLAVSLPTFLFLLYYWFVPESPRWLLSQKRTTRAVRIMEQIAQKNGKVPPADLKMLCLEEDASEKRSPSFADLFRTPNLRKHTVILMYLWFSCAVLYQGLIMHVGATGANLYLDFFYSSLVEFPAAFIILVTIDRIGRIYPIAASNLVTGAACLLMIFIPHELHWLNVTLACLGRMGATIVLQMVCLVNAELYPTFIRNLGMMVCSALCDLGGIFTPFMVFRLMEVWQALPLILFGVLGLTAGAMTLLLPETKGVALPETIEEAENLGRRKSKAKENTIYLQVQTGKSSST

[2] = target: Solute carrier family 22 member 1, Homo sapiens (UniProt O15245); assay: TP_TRANSPORTER: inhibition of TEA uptake (TEA: 10 uM) in OCT1-expressing HeLa cells
Solute carrier family 22 member 1, Homo sapiens, sequence (O15245 whole entry, looked up): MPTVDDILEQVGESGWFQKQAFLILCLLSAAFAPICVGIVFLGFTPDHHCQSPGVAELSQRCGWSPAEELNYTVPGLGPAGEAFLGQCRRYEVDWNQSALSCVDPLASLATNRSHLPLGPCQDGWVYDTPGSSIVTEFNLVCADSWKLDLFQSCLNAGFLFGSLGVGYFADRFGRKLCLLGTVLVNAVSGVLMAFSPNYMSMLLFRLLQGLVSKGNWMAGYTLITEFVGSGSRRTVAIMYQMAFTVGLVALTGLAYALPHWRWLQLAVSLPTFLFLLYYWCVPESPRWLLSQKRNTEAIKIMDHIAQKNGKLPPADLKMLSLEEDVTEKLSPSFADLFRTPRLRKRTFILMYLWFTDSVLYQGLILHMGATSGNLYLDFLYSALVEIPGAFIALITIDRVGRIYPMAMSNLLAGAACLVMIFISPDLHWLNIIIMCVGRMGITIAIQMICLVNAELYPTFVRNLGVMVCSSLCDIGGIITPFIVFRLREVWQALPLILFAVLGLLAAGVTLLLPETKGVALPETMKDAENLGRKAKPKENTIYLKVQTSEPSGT

Compound | Activity [1] | IC50 [2]
CC(C)(C)NC(=O)[C@@H]1C[C@@H]2CCCC[C@@H]2CN1C[C@@H](O)[C@H](Cc1ccccc1)NC(=O)[C@H](CC(N)=O)NC(=O)c1ccc2ccccc2n1 [SAQUINAVIR] | is not a substrate [-] | 8.26 µM
CC(C)(C)NC(=O)[C@@H]1CN(Cc2cccnc2)CCN1C[C@@H](O)C[C@@H](Cc1ccccc1)C(=O)N[C@H]1c2ccccc2C[C@H]1O [INDINAVIR] | – | 61.7 µM
Cc1c(O)cccc1C(=O)N[C@@H](CSc1ccccc1)[C@H](O)CN1C[C@H]2CCCC[C@H]2C[C@H]1C(=O)NC(C)(C)C [NELFINAVIR] | – | 21.8 µM
